Assay results: patent US20260232590A1, “LIPID NANOPARTICLES FOR THE TREATMENT OF OCULAR DISEASES” (UNIVERSITAT DE BARCELONA, priority 2023, published 2026)
Each block holds one molecule with its values, some of them ahead of it.

Columns and labels:
[1] = system: chorioallantoic membrane of a fertilized chicken egg; test: In vitro ocular tolerance HET-CAM test; conditions: 300 μL, first 5 min
Procedure: In vitro ocular tolerance was assessed using the HET-CAM test to ensure that the formulations of Loaded Lipid Nanoparticles were non-irritating when administered as eye-drops. Irritation, coagulation, and haemorrhage phenomena were measured by applying 300 μL of the formulation studied on chorioallantoic membrane of a fertilized chicken egg and monitoring it during the first 5 min after the application. This assay was conducted according to the guidelines of ICCVAM (The Interagency Coordinating Committee on the Validation of Alternative Methods). The development of the test was carried out using 3 eggs for each group (free APG, Loaded Lipid Nanoparticles, positive control (NaOH 0.1 M) and negative control (0.9% NaCl)). The ocular irritation index (OII) was calculated by the sum of the scores of each injury according to the following expression (Eq 3):
[formula] • where H, V and C are times (s) until the start of haemorrhage (H), vasoconstriction (V) and coagulation (C), respectively. The formulations were classified according to the following: OII≤0.9 non-irritating; 0.9<OII≤4.9 weakly irritating; 4.9<OII≤8.9 moderately irritating; 8.9<OII≤21 irritating.

[2] = concentration of 0.5%; cited from earlier work
[3] = In vitro APG release, Franz-type diffusion cells; type: in vitro ADME
Procedure: The in vitro APG release test for Loaded Lipid Nanoparticles was performed using Franz-type diffusion cells (Crown Glass, NY, USA) with a diffusion area of 0.20 cm^2 and dialysis membranes of cellulose (MWCO 12 kDa). A solution of PBS with 5% polysorbate 80 and 20% ethanol under continuous stirring was used as a receptor medium assuring sink conditions (ability of the medium to dissolve the expected amount of drug). The formulations were compared with free-APG solution. The assay was carried out at 32±0.5° C. along 48 h. 300 μL of each formulation were added to the donor compartment by direct contact with the membrane. At a certain timepoints, 150 μL of sample were collected with a syringe and the volume withdrawn was replaced with receptor solution. Drug content of the samples was analysed with HPLC. The test was performed by triplicate, and the cumulative amount of APG was calculated.

[4] = system: chorioallantoic membrane of a fertilized chicken egg; test: Trypan blue staining (TBS) of the CAM; conditions: after HET-CAM
Procedure: Furthermore, at the end of the HET-CAM experiment, in order to quantify the damage of the membrane, trypan blue staining (TBS) was applied. The CAM was treated with 1000 μL of 0.1% trypan blue solution for 1 min. Excess dye was rinsed off with distilled water. The dyed CAM was excised and extracted with 5 mL formamide, and the absorbance of the extract was measured spectrophotometrically at 595 nm. The absorbed trypan blue was determined from a calibration curve of trypan blue in formamide.

[5] = system: New Zealand male albino rabbits; test: In vivo primary eye irritation test of Draize; parameters: species or system rabbit
Procedure: All of the procedures were approved by the Ethical Committee for Animal Experimentation of the UB and current legislation (Decree 214/97, Gencat). The formulations were evaluated using primary eye irritation test of Draize to ensure the results obtained from the […] test. For this experiment, New Zealand male albino rabbits (2.0-2.5 kg, San Bernardo farm, Navarra, Spain) were used. 50 μL of each sample were instilled in the ocular conjunctival sac (n=3/group) and a mild massage was applied to guarantee the passage of the sample through the eyeball. […] The opposite untreated eye was used as a negative control. Draize test score was determined directly by observing the anterior segment of the eye and changes in the structures of the cornea (turbidity or opacity), iris and conjunctiva (congestion, chemosis, swelling and secretion).

[6] = system: dry eye induced by 0.1% benzalkonium chloride; test: Dry eye disease model, Schirmer test (aqueous tear production); type: in vivo, New Zealand white rabbits; conditions: twice-daily topical, one week
Procedure: In order to evaluate the potential to treat dry eye of Loaded Lipid Nanoparticles, Schirmer test, fluorescein and Bengal rose assessments were performed against Lipid Nanoparticles, free APG and 0.15% hyaluronic acid (commercial solution Hyabak®). Twelve male New Zealand white rabbits (purchased from Livestock Research Institute, Council of Agriculture, Executive Yuan, Taiwan) weighing between 2.0 and 2.5 kg were used for the study. The rabbits were randomly divided into 4 groups: Lipid Nanoparticles, Loaded Lipid Nanoparticles, free APG solution and 0.15% hyaluronic acid (commercial solution (Hyabak®). All rabbits were housed at a room temperature of 23±2° C. with relative humidity 75±10% and alternating 12-hour light-dark cycles (8 a.m. to 8 p.m.). Both eyes of each rabbit were treated twice-daily by a topical administration of 0.1% benzalkonium chloride (BAC) drops for 2 weeks. On day 14, DES was confirmed by Schirmer test, fluorescein and Bengal rose staining. The treatment began after the confirmation of DES, where on eye of each rabbit was chosen randomly for twice-daily topical administration of Lipid Nanoparticles, Loaded Lipid Nanoparticles, free APG solution and a commercial solution. […] Tear production was measured using Schirmer test strips. […] After 5 min, the wetted length (mm) of the paper strips was recorded.

[7] = system: dry eye induced by 0.1% benzalkonium chloride; test: Dry eye disease model, fluorescein staining of the ocular surface; type: in vivo, New Zealand white rabbits; conditions: twice-daily topical, one week
Procedure: In order to evaluate the potential to treat dry eye of Loaded Lipid Nanoparticles, Schirmer test, fluorescein and Bengal rose assessments were performed against Lipid Nanoparticles, free APG and 0.15% hyaluronic acid (commercial solution Hyabak®). Twelve male New Zealand white rabbits (purchased from Livestock Research Institute, Council of Agriculture, Executive Yuan, Taiwan) weighing between 2.0 and 2.5 kg were used for the study. The rabbits were randomly divided into 4 groups: Lipid Nanoparticles, Loaded Lipid Nanoparticles, free APG solution and 0.15% hyaluronic acid (commercial solution (Hyabak®). All rabbits were housed at a room temperature of 23±2° C. with relative humidity 75±10% and alternating 12-hour light-dark cycles (8 a.m. to 8 p.m.). Both eyes of each rabbit were treated twice-daily by a topical administration of 0.1% benzalkonium chloride (BAC) drops for 2 weeks. On day 14, DES was confirmed by Schirmer test, fluorescein and Bengal rose staining. The treatment began after the confirmation of DES, where on eye of each rabbit was chosen randomly for twice-daily topical administration of Lipid Nanoparticles, Loaded Lipid Nanoparticles, free APG solution and a commercial solution. After one week of treatment, Schirmer test, fluorescein and Bengal rose staining were performed. Fluorescein staining is an effective method for ocular surface evaluation. […]

[8] = system: HCE-2 cells; test: MTT cell viability in corneal cells; type: cell-based, human; conditions: 5- and 15-minutes incubation
Procedure: (§1) Human corneal epithelial cells (HCE-2) (LGC Standards, Barcelona, Spain) were cultured in keratinocyte serum-free growth medium (SFM; Life Technologies, Invitrogen, GIBCO®, Paisley, UK)). It was supplemented with bovine pituitary extract 0.05 mg·mL^−1 and epidermal growth factor 5 ng·mL^−1 containing insulin 0.005 mg·mL^−1 and penicillin 100 U·mL^−1 plus streptomycin […]. Cells were grown on a culture flask to 80% confluency in a humidified 10% CO2 atmosphere at 37° C. Human UM 92-1 cells were maintained in RPMI-1640 medium, added with 10% fetal bovine serum (FBS), 2 mM L-glutamine, 100 units/mL penicillin and […] streptomycin. For MTT assay, passages from 10 to 13 were used. All the cells were incubated at 37° C. and 10% CO2 [28].
(§2) Cytotoxicity of Loaded Lipid Nanoparticles and Lipid Nanoparticles was determined by MTT (3-(4,5-Dimethylthiazol-2-yl)-2,5-diphenyl tetrazolium bromide) assay, by reduction of tetrazolium salt by intracellular dehydrogenases of viable living cells. […] Cell viability was then measured at wavelength of 560 nm in a Modulus® Microplate Photometer (Turner BioSystems Inc., Sunnyvale, CA, USA). Results were expressed as percentage of cell survival relative to untreated cells.
The cytotoxicity of several concentrations of free APG, Loaded Lipid Nanoparticles, and the Lipid Nanoparticles (without APG) were evaluated on HCE-2 cells. […]

[9] = system: UM 92.1 cancer cells; test: MTT cytotoxic capacity in ocular tumoral cells; type: cell-based, human; conditions: 0.005-0.05 mg/mL, 24 h
Procedure: as §1
as §2, with “untreated cells. […]” for “untreated cells.”

[10] = system: CAM of embryonated eggs; test: Antiangiogenic activity, modified CAM test; parameters: species or system chicken; conditions: 40 μL, 48 h
Procedure: To determine the antiangiogenic effects of Loaded Lipid Nanoparticles, a modified choriolantoic membrane (CAM) test was used. It was carried out using fertilised chicken eggs incubated at 37° C. and 85% humidity from the farm […] (Tarragona, Spain). A lateral window was opened on the eggshell on the 3rd day of incubation and after 24 h of stabilization, 40 μL of the sample were inoculated to the CAM. Afterwards the membrane was sealed and incubated for 48 h. The controls of the experiments were NaCl as a normal angiogenic development, and basic fibroblast growth factor (bFGF) as a pro-angiogenic control (20 μL at 10 ng·mL^-1). Once CAM were evaluated, membranes were fixed by adding 4% paraformaldehyde overnight at 4° C. Next, membranes were extracted and observed using a binocular loupe. Afterwards, the obtained images were processed and the density of the vessels in the CAM was automatically measured using ImageJ vessel analysis plugin [34].

[11] = system: ocular inflammation induced by sodium arachidonate; test: In vivo anti-inflammatory treatment study (sodium arachidonate); parameters: species or system New Zealand male albino rabbits; conditions: applied 30 min after SA
Procedure: In vivo anti-inflammatory effectiveness was carried out throughout the evaluation test for the inflammation prevention ability and the anti-inflammatory efficacy. Assays were carried out using New Zealand male albino rabbits (n=3/group), described previously. The activity of Loaded Lipid Nanoparticles in comparison with free APG, Lipid Nanoparticles, and NaCl 0.9% (control group) was measured. The inflammation prevention study consisted of the ocular application of 50 μL of each formulation. After 30 min of exposure, an inflammatory stimulus, 50 μL of 0.5% sodium arachidonate (SA) dissolved in PBS, was instilled in the right eye and the left eye was used as a control. In the anti-inflammatory treatment study, the inflammatory stimulus was applied 30 min before than the application of each formulation tested. The evaluation of prevention and treatment of each formulation were carried out from the first application up to 210 min, according to the Draize modified test scoring system.

Compound: [Na+].[OH-] [NaOH]
HET-CAM irritation classification [1]: severe irritant

Compound: CCCCCCCCCCCCCCCCCC[N+](C)(C)CCCCCCCCCCCCCCCCCC.[Br-] [DDAB, dimethyldioctadecylammonium bromide]
toxicity in ocular delivery [2]: had not shown any toxicity

in vitro release profile ([3]; 48 h): faster release
APG released ([3]; at 24 h, 32° C., PBS with 5% polysorbate 80 and 20% ethanol): 100%
Compound: O=c1cc(-c2ccc(O)cc2)oc2cc(O)cc(O)c12 [free APG, Apigenin]
TBS quantitative result (irritancy) [4]: irritant
Draize test irritancy in vivo ([5]; 50 μL in conjunctival sac): non-irritant
discomfort after instillation ([5]; in vivo): caused an initial discomfort
tear flow (Schirmer test) versus dry eye group [6]: did not improve the tear flow
fluorescein staining score, corneal surface [7]: worse punctuation in the staining
cell viability [8]: ≥ 80%
cell viability / toxicity ([8]; all the tested concentrations): did not show toxicity
cytotoxicity against cancer cells [9]: significant toxicity
vascular density versus negative control (NaCl) [10]: not significant
inflammation treatment effect [11]: able to treat fast the inflammation
